Common to all, as to details: mouse, in vivo
The subject of one test is E. coli strain TVDL-rat. Also on record: species or system mice.
The next test deals with B. anthracis. Also on record: species or system mouse (Balb/c).
A further test concerns B. anthracis spores. Also on record: species or system mouse (Balb/c).

Values joined by “and” are separate entries in the source; they are usually repeats but may differ in a detail not shown here. Equal values may be shown once.

Consider one substance from patent US8865679B2 (priority 2001, dated 2014).

Turning to “poly-(1,6)-β-D-glucopyranosyl (1,3)β-D-glucopyranose [PGG]”, in the test on E. coli strain TVDL-rat, the survival rate is 90% and 75% and 70%. Moreover, in the test on B. anthracis, the bacteria-free animals turned out to be 86.4% and the “bacterial load in lung of surviving animals” value was 2.6×10^5 CFU/g lung. Moreover, in the test on B. anthracis spores, the mean survival time is 10.2 days and 11.5 days; the “number of survivors out of 22 mice” value turned out to be 19; the percent survivors turned out to be 86.36%; the “survival, data pooled from the two experiments” value is listed as 10.86 days.
